Measured values from the supplement of paper PMC10307832.

Tests used:
Assay in all cases: relative viability (nuclei count vs DMSO), 5 days (fraction); higher = more cells survive
[1] = compound: C(C(=O)C(=O)O)Br [Bromopyruvate] + CC(=O)Nc1cccc(-n2c(=O)n(C3CC3)c(=O)c3c(Nc4ccc(I)cc4F)n(C)c(=O)c(C)c32)c1 [Trametinib] (partner 0.02 µM)
Procedure, shortened: (§1)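 Lung cancer cell lines, seeded in 1536-well plates, were treated the following day by pin tool with a single drug or with five library-drug doses (not always all listed) in √10 steps on top of a fixed anchor-drug dose. Cells were fixed and nuclei stained in one step after 5 days, and nuclei were counted. Relative viability is the nuclei count for treated wells divided by that for vehicle wells, reported as medians of duplicate plates.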

[2] = compound: C(C(=O)C(=O)O)Br [Bromopyruvate] + Cc1nc(Nc2ncc(C(=O)Nc3c(C)cccc3Cl)s2)cc(N2CCN(CCO)CC2)n1 [Dasatinib] (partner 0.075 µM)
Procedure, shortened: as §1

Bicalutamide + OSI-027 = compound: CC(O)(CS(=O)(=O)c1ccc(F)cc1)C(=O)Nc1ccc(C#N)c(C(F)(F)F)c1 [Bicalutamide] + COc1cccc2cc(-c3nc([C@H]4CC[C@H](C(=O)O)CC4)n4ncnc(N)c34)[nH]c12 [OSI-027] (partner 0.5 µM)
Procedure, shortened: as §1

[3] = compound: CC(O)(CS(=O)(=O)c1ccc(F)cc1)C(=O)Nc1ccc(C#N)c(C(F)(F)F)c1 [Bicalutamide] + CS(=O)(=O)N1CCN(Cc2cc3nc(-c4cccc5[nH]ncc45)nc(N4CCOCC4)c3s2)CC1 [Pictilisib] (partner 1 µM)
Procedure, shortened: as §1

UMC-11
relative viability ([1]; first compound 1 µM): 0.746 | relative viability ([1]; first compound 3.162 µM): 0.604 | relative viability ([1]; first compound 10 µM): 0.622 | relative viability ([1]; first compound 31.62 µM): 0.732 | relative viability ([1]; first compound 100 µM): 0.748 | relative viability ([2]; first compound 1 µM): 0.504 | relative viability ([2]; first compound 3.162 µM): 0.497 | relative viability ([2]; first compound 10 µM): 0.484 | relative viability ([2]; first compound 31.62 µM): 0.433 | relative viability ([2]; first compound 100 µM): 0.495 | relative viability (Bicalutamide + OSI-027; first compound 0.08 µM): 0.505 | relative viability (Bicalutamide + OSI-027; first compound 0.253 µM): 0.461 | relative viability (Bicalutamide + OSI-027; first compound 0.8 µM): 0.591 | relative viability (Bicalutamide + OSI-027; first compound 2.53 µM): 0.395 | relative viability ([3]; first compound 0.08 µM): 0.742 | relative viability ([3]; first compound 0.253 µM): 0.621 | relative viability ([3]; first compound 0.8 µM): 1.14 | relative viability ([3]; first compound 2.53 µM): 0.768
